Laboratory results: ChEMBL document CHEMBL4507324 (2021)

How the values were obtained:
Details in all cases: Compound concentration 100.0 nM
[1] = target: Atypical kinase COQ8B, mitochondrial (Homo sapiens) (UniProt Q96D53)
[2] = target: RAC-gamma serine/threonine-protein kinase (Homo sapiens) (UniProt Q9Y243)
[3] = target: ALK tyrosine kinase receptor (Homo sapiens) (UniProt Q9UM73)
[4] = target: Bone morphogenetic protein receptor type-1B (Homo sapiens) (UniProt O00238)
[5] = target: Calcium/calmodulin-dependent protein kinase type II subunit beta (Homo sapiens) (UniProt Q13554)
[6] = target: Calcium/calmodulin-dependent protein kinase kinase 2 (Homo sapiens) (UniProt Q96RR4)
[7] = target: Casein kinase I isoform gamma-3 (Homo sapiens) (UniProt Q9Y6M4)
[8] = target: Casein kinase II subunit alpha' (Homo sapiens) (UniProt P19784)
[9] = test system: Epidermal growth factor receptor (Homo sapiens), P00533 [UNDEFINED MUTATION]
[10] = test system: Epidermal growth factor receptor (Homo sapiens), P00533 [L858R]
[11] = target: Ephrin type-A receptor 3 (Homo sapiens) (UniProt P29320)
[12] = target: Ephrin type-A receptor 5 (Homo sapiens) (UniProt P54756)
[13] = target: Ephrin type-A receptor 7 (Homo sapiens) (UniProt Q15375)
[14] = target: Mitogen-activated protein kinase 7 (Homo sapiens) (UniProt Q13164)
[15] = test system: Receptor-type tyrosine-protein kinase FLT3 (Homo sapiens), P36888 [UNDEFINED MUTATION]
[16] = target: G protein-coupled receptor kinase 3 (Homo sapiens) (UniProt P35626)
[17] = target: Rhodopsin kinase GRK7 (Homo sapiens) (UniProt Q8WTQ7)
[18] = target: Homeodomain-interacting protein kinase 2 (Homo sapiens) (UniProt Q9H2X6)
[19] = target: Tyrosine-protein kinase ITK/TSK (Homo sapiens) (UniProt Q08881)
[20] = target: Mitogen-activated protein kinase 8 (Homo sapiens) (UniProt P45983)
[21] = test system: Mast/stem cell growth factor receptor Kit (Homo sapiens), P10721 [A829P]
[22] = target: Mitogen-activated protein kinase kinase kinase 4 (Homo sapiens) (UniProt Q9Y6R4)
[23] = target: Mitogen-activated protein kinase kinase kinase kinase 3 (Homo sapiens) (UniProt Q8IVH8)
[24] = target: Microtubule-associated serine/threonine-protein kinase 1 (Homo sapiens) (UniProt Q9Y2H9)
[25] = target: Maternal embryonic leucine zipper kinase (Homo sapiens) (UniProt Q14680)
[26] = target: Hepatocyte growth factor receptor (Homo sapiens) (UniProt P08581)
[27] = target: MAP kinase-interacting serine/threonine-protein kinase 1 (Homo sapiens) (UniProt Q9BUB5)
[28] = target: Myosin light chain kinase (Homo sapiens) (UniProt Q32MK0)
[29] = target: Serine/threonine-protein kinase Nek4 (Homo sapiens) (UniProt P51957)
[30] = target: Serine/threonine-protein kinase PAK 6 (Homo sapiens) (UniProt Q9NQU5)
[31] = target: Calcium-dependent protein kinase 1 (Plasmodium falciparum) (UniProt P62344)
[32] = test system: Phosphatidylinositol 4,5-bisphosphate 3-kinase catalytic subunit alpha isoform (Homo sapiens), P42336 [E545K]
[33] = test system: Phosphatidylinositol 4,5-bisphosphate 3-kinase catalytic subunit alpha isoform (Homo sapiens), P42336 [M1043I]
[34] = target: Phosphatidylinositol 4,5-bisphosphate 3-kinase catalytic subunit gamma isoform (Homo sapiens) (UniProt P48736)
[35] = target: Serine/threonine-protein kinase pim-1 (Homo sapiens) (UniProt P11309)
[36] = target: Protein kinase C delta type (Homo sapiens) (UniProt Q05655)
[37] = target: Protein kinase C epsilon type (Homo sapiens) (UniProt Q02156)
[38] = target: Serine/threonine-protein kinase D2 (Homo sapiens) (UniProt Q9BZL6)
[39] = target: Serine/threonine-protein kinase PRP4 homolog (Homo sapiens) (UniProt Q13523)
[40] = target: Ribosomal protein S6 kinase alpha-4 (Homo sapiens) (UniProt O75676)
[41] = target: Ribosomal protein S6 kinase alpha-2 (Homo sapiens) (UniProt Q15349)
[42] = target: Serine/threonine-protein kinase Sgk2 (Homo sapiens) (UniProt Q9HBY8)
[43] = target: Serine/threonine-protein kinase 33 (Homo sapiens) (UniProt Q9BYT3)
[44] = target: Tyrosine-protein kinase TXK (Homo sapiens) (UniProt P42681)
[45] = target: Serine/threonine-protein kinase WNK4 (Homo sapiens) (UniProt Q96J92)

Sequence of Serine/threonine-protein kinase D2 (Homo sapiens) (Q9BZL6 whole entry): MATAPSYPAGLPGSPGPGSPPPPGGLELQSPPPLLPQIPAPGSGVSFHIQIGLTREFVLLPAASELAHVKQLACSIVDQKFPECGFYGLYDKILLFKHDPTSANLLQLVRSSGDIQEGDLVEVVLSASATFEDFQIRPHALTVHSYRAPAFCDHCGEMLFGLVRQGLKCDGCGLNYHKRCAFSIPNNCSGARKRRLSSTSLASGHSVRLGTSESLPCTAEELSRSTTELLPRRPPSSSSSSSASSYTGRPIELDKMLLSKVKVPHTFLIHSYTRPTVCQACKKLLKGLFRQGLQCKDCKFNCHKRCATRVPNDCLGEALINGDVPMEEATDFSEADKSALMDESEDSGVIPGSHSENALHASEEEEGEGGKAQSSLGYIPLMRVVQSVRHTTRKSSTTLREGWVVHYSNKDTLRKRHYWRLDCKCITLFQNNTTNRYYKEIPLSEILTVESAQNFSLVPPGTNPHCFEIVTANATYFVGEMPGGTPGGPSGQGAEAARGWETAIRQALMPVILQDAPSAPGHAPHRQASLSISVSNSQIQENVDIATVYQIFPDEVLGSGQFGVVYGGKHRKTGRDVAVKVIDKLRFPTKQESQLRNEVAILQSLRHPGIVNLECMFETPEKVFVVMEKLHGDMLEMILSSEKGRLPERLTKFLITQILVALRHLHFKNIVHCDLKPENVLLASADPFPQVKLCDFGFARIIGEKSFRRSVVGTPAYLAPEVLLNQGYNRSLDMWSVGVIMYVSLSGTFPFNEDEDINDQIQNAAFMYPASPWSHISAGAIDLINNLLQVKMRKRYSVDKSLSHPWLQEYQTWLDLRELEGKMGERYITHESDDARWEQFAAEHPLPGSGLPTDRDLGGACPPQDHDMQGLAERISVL
Sequence of Ribosomal protein S6 kinase alpha-2 (Homo sapiens) (Q15349 whole entry): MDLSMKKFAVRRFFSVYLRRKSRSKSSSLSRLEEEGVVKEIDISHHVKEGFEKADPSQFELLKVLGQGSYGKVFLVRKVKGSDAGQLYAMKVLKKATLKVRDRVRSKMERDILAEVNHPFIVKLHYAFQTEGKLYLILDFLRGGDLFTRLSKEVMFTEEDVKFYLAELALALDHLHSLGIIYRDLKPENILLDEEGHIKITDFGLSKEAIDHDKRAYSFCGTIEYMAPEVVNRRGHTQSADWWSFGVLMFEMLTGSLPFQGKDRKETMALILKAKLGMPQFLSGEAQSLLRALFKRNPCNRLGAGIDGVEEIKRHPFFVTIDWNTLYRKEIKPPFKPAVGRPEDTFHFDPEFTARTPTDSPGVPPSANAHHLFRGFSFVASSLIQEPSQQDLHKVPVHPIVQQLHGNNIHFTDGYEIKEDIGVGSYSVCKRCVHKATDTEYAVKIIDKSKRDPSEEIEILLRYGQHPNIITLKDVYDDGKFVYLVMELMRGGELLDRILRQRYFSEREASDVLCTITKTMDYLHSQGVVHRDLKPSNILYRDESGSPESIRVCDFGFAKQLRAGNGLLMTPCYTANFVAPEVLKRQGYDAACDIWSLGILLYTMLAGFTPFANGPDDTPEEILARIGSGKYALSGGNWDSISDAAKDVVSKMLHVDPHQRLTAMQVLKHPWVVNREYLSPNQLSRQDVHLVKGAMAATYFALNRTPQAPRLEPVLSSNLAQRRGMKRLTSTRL
Sequence of Calcium-dependent protein kinase 1 (Plasmodium falciparum) (P62344 2-524 limits assumed): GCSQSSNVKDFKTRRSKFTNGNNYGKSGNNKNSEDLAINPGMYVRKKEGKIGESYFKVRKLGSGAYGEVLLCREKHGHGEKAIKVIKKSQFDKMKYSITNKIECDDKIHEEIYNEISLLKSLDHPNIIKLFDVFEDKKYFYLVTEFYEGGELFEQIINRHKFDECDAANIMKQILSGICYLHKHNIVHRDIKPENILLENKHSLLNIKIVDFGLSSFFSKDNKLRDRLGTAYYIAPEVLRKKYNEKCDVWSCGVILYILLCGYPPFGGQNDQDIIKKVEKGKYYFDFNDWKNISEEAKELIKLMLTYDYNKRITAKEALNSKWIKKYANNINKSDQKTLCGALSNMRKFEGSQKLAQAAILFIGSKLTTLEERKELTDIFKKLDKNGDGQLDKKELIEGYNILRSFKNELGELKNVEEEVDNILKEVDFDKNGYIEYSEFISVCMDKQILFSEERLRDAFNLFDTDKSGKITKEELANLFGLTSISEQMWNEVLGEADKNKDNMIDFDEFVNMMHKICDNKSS
Sequence of Maternal embryonic leucine zipper kinase (Homo sapiens) (Q14680 whole entry, looked up): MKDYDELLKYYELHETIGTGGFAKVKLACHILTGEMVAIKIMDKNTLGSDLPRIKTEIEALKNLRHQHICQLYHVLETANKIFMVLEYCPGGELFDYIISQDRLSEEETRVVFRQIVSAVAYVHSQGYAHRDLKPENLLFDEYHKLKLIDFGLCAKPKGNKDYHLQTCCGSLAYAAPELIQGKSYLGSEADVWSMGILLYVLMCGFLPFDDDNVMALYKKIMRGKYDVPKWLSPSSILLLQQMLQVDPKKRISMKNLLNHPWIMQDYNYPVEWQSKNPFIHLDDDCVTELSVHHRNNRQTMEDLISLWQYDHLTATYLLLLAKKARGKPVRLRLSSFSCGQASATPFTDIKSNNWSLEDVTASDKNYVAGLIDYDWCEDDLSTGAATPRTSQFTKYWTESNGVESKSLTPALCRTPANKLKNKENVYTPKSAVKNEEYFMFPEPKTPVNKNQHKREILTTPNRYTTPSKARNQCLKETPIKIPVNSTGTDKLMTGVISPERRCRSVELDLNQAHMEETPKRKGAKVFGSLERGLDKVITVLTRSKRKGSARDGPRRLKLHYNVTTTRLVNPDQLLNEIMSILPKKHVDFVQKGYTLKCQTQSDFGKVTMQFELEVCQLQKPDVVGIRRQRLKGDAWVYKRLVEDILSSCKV
Sequence of Phosphatidylinositol 4,5-bisphosphate 3-kinase catalytic subunit alpha isoform (Homo sapiens), P42336 [E545K] (P42336 whole entry E545K, canonical isoform): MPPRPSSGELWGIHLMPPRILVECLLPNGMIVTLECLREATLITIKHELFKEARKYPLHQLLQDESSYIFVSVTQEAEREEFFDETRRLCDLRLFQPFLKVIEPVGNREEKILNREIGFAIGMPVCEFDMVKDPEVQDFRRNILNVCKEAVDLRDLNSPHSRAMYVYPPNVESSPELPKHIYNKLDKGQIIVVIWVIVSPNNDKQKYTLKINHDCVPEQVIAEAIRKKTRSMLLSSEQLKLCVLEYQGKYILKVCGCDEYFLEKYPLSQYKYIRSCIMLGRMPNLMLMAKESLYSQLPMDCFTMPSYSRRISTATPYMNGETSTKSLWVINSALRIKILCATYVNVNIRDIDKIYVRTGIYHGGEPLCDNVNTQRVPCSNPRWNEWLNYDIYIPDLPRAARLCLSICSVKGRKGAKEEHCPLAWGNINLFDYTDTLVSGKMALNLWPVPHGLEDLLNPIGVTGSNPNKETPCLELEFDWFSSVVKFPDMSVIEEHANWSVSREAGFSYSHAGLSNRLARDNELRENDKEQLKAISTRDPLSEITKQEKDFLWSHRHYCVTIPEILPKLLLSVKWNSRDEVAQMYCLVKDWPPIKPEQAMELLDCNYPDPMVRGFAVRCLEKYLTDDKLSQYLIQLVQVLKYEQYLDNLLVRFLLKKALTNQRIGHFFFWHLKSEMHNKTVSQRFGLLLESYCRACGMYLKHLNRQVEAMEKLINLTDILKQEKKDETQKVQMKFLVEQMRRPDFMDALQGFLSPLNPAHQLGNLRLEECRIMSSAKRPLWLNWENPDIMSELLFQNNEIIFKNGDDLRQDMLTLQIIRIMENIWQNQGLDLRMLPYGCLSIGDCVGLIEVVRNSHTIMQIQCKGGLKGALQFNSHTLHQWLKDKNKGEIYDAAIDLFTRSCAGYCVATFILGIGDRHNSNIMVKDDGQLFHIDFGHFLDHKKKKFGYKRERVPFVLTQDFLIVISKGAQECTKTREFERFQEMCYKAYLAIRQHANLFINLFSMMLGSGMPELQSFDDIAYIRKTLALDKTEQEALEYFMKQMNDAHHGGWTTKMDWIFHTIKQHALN
Sequence of Homeodomain-interacting protein kinase 2 (Homo sapiens) (Q9H2X6 whole entry, looked up): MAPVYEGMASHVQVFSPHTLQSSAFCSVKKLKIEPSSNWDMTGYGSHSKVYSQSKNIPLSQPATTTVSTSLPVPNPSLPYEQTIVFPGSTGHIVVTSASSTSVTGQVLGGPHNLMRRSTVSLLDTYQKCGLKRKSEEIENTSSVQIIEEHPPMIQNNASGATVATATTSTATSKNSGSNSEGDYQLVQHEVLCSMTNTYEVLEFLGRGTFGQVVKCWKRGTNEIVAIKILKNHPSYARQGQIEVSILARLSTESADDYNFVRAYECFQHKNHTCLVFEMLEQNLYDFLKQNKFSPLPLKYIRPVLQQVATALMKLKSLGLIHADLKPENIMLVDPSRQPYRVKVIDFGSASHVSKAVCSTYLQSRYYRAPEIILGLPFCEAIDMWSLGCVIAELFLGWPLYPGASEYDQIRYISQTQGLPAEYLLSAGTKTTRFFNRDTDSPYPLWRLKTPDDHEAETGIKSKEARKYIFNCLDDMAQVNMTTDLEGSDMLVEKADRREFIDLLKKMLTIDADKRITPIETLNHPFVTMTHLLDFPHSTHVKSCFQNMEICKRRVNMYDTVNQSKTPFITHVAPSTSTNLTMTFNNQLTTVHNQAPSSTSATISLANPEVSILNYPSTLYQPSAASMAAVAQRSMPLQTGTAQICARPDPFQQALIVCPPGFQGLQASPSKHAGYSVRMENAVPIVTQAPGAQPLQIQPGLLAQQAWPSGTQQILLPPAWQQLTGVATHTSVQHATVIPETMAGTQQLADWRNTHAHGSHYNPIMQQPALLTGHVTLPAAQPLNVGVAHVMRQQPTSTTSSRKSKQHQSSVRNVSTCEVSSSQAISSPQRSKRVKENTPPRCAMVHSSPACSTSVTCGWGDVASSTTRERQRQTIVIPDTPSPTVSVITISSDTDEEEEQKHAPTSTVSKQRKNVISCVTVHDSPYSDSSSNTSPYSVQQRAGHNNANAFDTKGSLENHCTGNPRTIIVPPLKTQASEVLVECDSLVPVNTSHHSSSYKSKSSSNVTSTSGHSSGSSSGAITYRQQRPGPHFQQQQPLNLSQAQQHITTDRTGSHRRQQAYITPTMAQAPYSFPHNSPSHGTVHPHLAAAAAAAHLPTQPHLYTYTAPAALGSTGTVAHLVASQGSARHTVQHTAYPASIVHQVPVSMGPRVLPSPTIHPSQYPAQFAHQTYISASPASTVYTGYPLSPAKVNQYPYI

## CS(=O)(=O)N1CCCC(NC(=O)[C@H](CCC2CCCCC2)NC(=O)c2ccc(CNC(=O)c3cnc4ccccn34)cc2)C1 (stereo not given in full) [SR-302]
[1]
  residual activity: 100%
[2]
  residual activity: 100%
[3]
  residual activity: 100%
[4]
  residual activity: 100%
[5]
  residual activity: 100%
[6]
  residual activity: 88%
[7]
  residual activity: 100%
[8]
  residual activity: 100%
[9]
  residual activity: 90%
[10]
  residual activity: 83%
[11]
  residual activity: 97%
[12]
  residual activity: 100%
[13]
  residual activity: 96%
[14]
  residual activity: 94%
[15]
  residual activity: 100%
[16]
  residual activity: 100%
[17]
  residual activity: 91%
[18]
  residual activity: 100%
[19]
  residual activity: 90%
[20]
  residual activity: 100%
[21]
  residual activity: 66%
[22]
  residual activity: 91%
[23]
  residual activity: 87%
[24]
  residual activity: 94%
[25]
  residual activity: 100%
[26]
  residual activity: 62%
[27]
  residual activity: 100%
[28]
  residual activity: 88%
[29]
  residual activity: 100%
[30]
  residual activity: 100%
[31]
  residual activity: 78%
[32]
  residual activity: 86%
[33]
  residual activity: 37%
[34]
  residual activity: 96%
[35]
  residual activity: 89%
[36]
  residual activity: 100%
[37]
  residual activity: 83%
[38]
  residual activity: 100%
[39]
  residual activity: 74%
[40]
  residual activity: 100%
[41]
  residual activity: 94%
[42]
  residual activity: 100%
[43]
  residual activity: 100%
[44]
  residual activity: 91%
[45]
  residual activity: 80%

## CS(=O)(=O)N1CCCC(NC(=O)[C@H](CCC2CCCCC2)NC(=O)c2ccc(CNc3ncnc4c3nnn4-c3ccccc3)cc2)C1 (stereo not given in full) [SR-301]
[1]
  residual activity: 100%
[2]
  residual activity: 86%
[3]
  residual activity: 100%
[4]
  residual activity: 91%
[5]
  residual activity: 100%
[6]
  residual activity: 78%
[7]
  residual activity: 100%
[8]
  residual activity: 85%
[9]
  residual activity: 93%
[10]
  residual activity: 100%
[11]
  residual activity: 75%
[12]
  residual activity: 96%
[13]
  residual activity: 98%
[14]
  residual activity: 94%
[15]
  residual activity: 100%
[16]
  residual activity: 100%
[17]
  residual activity: 100%
[18]
  residual activity: 100%
[19]
  residual activity: 100%
[20]
  residual activity: 85%
[21]
  residual activity: 100%
[22]
  residual activity: 75%
[23]
  residual activity: 75%
[24]
  residual activity: 100%
[25]
  residual activity: 100%
[26]
  residual activity: 68%
[27]
  residual activity: 86%
[28]
  residual activity: 100%
[29]
  residual activity: 100%
[30]
  residual activity: 100%
[31]
  residual activity: 100%
[32]
  residual activity: 53%
[33]
  residual activity: 87%
[34]
  residual activity: 85%
[35]
  residual activity: 95%
[36]
  residual activity: 80%
[37]
  residual activity: 63%
[38]
  residual activity: 92%
[39]
  residual activity: 60%
[40]
  residual activity: 91%
[41]
  residual activity: 100%
[42]
  residual activity: 100%
[43]
  residual activity: 84%
[44]
  residual activity: 77%
[45]
  residual activity: 100%
